Results published in patent US20240190862A1 (AMGEN INC., priority 2019, published 2024).
Read-outs that look alike come from different tables or passages of the source.

Tests used:
[1] = target: GDP-bound KRAS protein (aa 1-169) G12C/C118A (Homo sapiens (Human), UniProt P01116, C118A/G12C); test: Coupled Nucleotide Exchange Assay (KRAS G12C); assay type: biochemical
Method: (§1) Coupled Nucleotide Exchange Assay: Purified GDP-bound KRAS protein (aa 1-169), containing either G12C or G12D, as well as C118A amino acid substitutions and an N-terminal His-tag, was pre-incubated in assay buffer (25 mM HEPES pH 7.4, 10 mM MgCl2, and 0.01% Triton X-100) with a compound dose-response titration for either 5 min or 20 hours (see Table 15). Following compound pre-incubation, purified SOS protein (aa 564-1049) and GTP (Roche 10106399001) were added to the assay wells and incubated for an additional 30 min. To determine the extent of inhibition of SOS-mediated nucleotide exchange, purified GST-tagged cRAF (aa 1-149), nickel chelate AlphaLISA acceptor beads (PerkinElmer AL108R), and AlphaScreen glutathione donor beads (PerkinElmer 6765302) were added to the assay wells and incubated for 10 minutes. The assay plates were then read on a PerkinElmer EnVision Multilabel Reader, using AlphaScreen® technology, and data were analyzed using a 4-parameter logistic model to calculate IC50 values.

[2] = target: GDP-bound KRAS protein (aa 1-169) G12D/C118A (Homo sapiens (Human), UniProt P01116, C118A/G12D); test: Coupled Nucleotide Exchange Assay (KRAS G12D); assay type: biochemical; conditions: 20 h compound pre-incubation; read-out: GDP KRAS G12D 20 h Coupled Exchange IC50 IP
Method: as §1

GDP-KRAS G12D = GDP-KRAS G12D (Homo sapiens, UniProt P01116, C118A/G12D); test: GDP-KRAS G12D RF-MS Assay; assay type: binding; conditions: 100 μM inhibitor, 20 h incubation, 2 uM KRAS G12D
Method: GDP-KRAS G12D RF-MS Assay: MS assays were performed in the following buffer: 25 mM HEPES pH 7.4, 20 mM MgCl2, 10 mM NaCl, 3% DMSO, 0.0005% CHAPS with 100 μM GDP made fresh and added to the assay buffer. The final concentration of KRAS G12D was 2 uM. Assay incubation times were 20 h and the inhibitor concentration was 100 μM. Greiner polypropylene clear V-bottom plates were used for the mass spectrometry assays. Typically, the reaction was initiated by addition of KRAS G12D to a well containing inhibitor followed by Rapidfire MS analysis. Relative % Bound values at the various incubation times were used to estimate a kobs value at 100 uM inhibitor.
RapidFire Sample Liquid handling System: The RapidFire liquid handling unit used was the RF 360 model. Solvents were delivered by Agilent 1260 Infinity pumps. The instrument control software was the Agilent RapidFire High Throughput MS-system software (v4.0.12333.14274). A single C4 Type A (Agilent technologies, G9203) SPE-cartridge was used for these experiments. A volume of 10 μL (sample loop determined) was removed from each well of a 384-well plate by using an aspiration time of 300 ms. The sample load/wash time was 6000 ms at a flow rate of 1.25 mL/min (H2O, 0.1% v/v formic acid, 0.05% v/v trifluoroacetic acid); elution time was 7000 ms (acetonitrile, 0.1% v/v formic acid, 0.05% v/v trifluoroacetic acid); re-equilibration time was 700 ms at a flow rate of 1.25 mL/min (H2O, 0.1% v/v formic acid, 0.05% v/v trifluoroacetic acid).
Mass Spectrometry: Mass spectrometric data was acquired on an Agilent 6530 quadrupole time-of-flight (ToF) MS system, operated with a dual Agilent Jet Spray (AJS) ion source, in positive ionization mode. The instrument parameters were as follows: gas temperature 350° C.; drying gas 5 L/min; nebulizer 60 psi; sheath gas 350° C.; sheath gas flow 11 L/min; capillary 3.5 kV (0.037 μA); nozzle 1.75 kV; fragmentor 200 V; skimmer 75 V; octapole RF 800 V peak-to-peak. Data was acquired at the rate of 5 spectra/s. The mass scale was calibrated using the Agilent positive ion tune mix, over the m/z range 300-3200. The instrument control software was Agilent MassHunter Workstation Data Acquisition (vB.05.01).
Mass Spectrometry Data Processing and Informatics: All data processing was performed using a HP Z620, 64-bit, 12-processor, Windows 7 PC, using a combination of Agilent MassHunter Qualitative Analysis (B.05.00) Agilent RapidFire control software (v4.0.12333.14070) and the Agilent DA Reprocessor Offline Utilities B.05.00, Build 162. The SPE-MS data acquired from the RapidFire-MS system is typically a single SPE-MS data file composed of multiple injection events. For effective charge state extraction, SPE-peak integration and subsequent MS-spectral deconvolution, the single SPE-MS data file is split into single injection events. This is typically performed off-line and achieved through the RapidFire User Interface software, using the Agilent RapidFire control software (v4.0.12333.14070) using the Convert MS Data option. Once the individual injection-event MS-data files have been produced, they are all batch processed using the DA Reprocessor Offline Utilities (B.05.00, Build 162, Agilent). For batch processing a method file was created using Agilent MassHunter Qualitative Analysis B.05.00. The details of this method file are contained within the BioConfirm Workflow and are as follows: Integrate (MS), Integrator Selection: General, smooth option selected; detector point sampling 1; start threshold 5.0; stop threshold 0.0; filtering 5 point; peak location, top. Extract (MS): Peak Spectrum Extraction (MS) within m/z 800-1400. Deconvolute (MS) Maximum Entropy: mass range 19,000-21,000 Daltons; Mass step 1.0 Da; S/N threshold 20.0; Use limited m/z range 800-1400; adduct proton; isotope peak width automatic; minimum consecutive charge states 5. […]

[3] = 5 min compound pre-incubation, read-out: GDP KRAS G12C 5 min Coupled Exchange IC50 IP
[4] = 20 h compound pre-incubation, read-out: GDP KRAS G12C 20 h Coupled Exchange IC50 IP

Sequence of GDP-bound KRAS protein (aa 1-169) G12D/C118A (P01116 other isoform, or with tags, fused parts or gaps G12D/C118A): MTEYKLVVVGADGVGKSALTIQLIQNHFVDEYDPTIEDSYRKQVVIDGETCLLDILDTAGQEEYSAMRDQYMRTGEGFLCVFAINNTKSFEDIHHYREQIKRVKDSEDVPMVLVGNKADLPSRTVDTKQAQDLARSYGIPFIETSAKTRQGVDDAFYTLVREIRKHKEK
Sequence of GDP-bound KRAS protein (aa 1-169) G12C/C118A (P01116 other isoform, or with tags, fused parts or gaps G12C/C118A): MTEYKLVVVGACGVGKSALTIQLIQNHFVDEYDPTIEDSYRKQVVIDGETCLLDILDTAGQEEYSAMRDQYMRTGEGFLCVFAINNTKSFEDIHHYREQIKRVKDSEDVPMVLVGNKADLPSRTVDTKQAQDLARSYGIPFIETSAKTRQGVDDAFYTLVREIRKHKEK

IC50 [1, 3] [µM] | IC50 [1, 4] [µM] | IC50 [2] [µM] | GDP-KRAS G12D RF-MS 100 μM 20 h Relative % Bound (GDP-KRAS G12D) [%] | Compound
193 | 0.647 | > 250 | – | Cc1ccnc(C(C)C)c1-n1c(=O)nc(N2CCC3C2CN3C(=O)C2CO2)c2cc(Cl)c(-c3ccccc3F)nc21 (stereo not drawn) [Example 28, 6-Chloro-7-(2-fluorophenyl)-1-(2-isopropyl-4-methylpyridin-3-yl)-4-(6-(oxirane-2-carbonyl)-2,6-diazabicyclo[3.2.0]heptan-2-yl)pyrido[2,3-d]pyrimidin-2(1H)-one]
146 | 1.57 | > 250 | 2.2 | Cc1ccnc(C(C)C)c1-n1c(=O)nc(NC2CN(C(=O)C3CO3)C2)c2cc(Cl)c(-c3ccccc3F)nc21 (stereo not drawn) [Example 31, 6-Chloro-7-(2-fluorophenyl)-1-(2-isopropyl-4-methylpyridin-3-yl)-4-((1-(oxirane-2-carbonyl)azetidin-3-yl)amino)pyrido[2,3-d]pyrimidin-2(1H)-one]
101 | 1.85 | > 250 | 3.1 | Cc1ccnc(C(C)C)c1-n1c(=O)nc(N[C@@H]2CCN(C(=O)C3CO3)C2)c2cc(Cl)c(-c3ccccc3F)nc21 (stereo partly drawn) [Example 32, 6-Chloro-7-(2-fluorophenyl)-1-(2-isopropyl-4-methylpyridin-3-yl)-4-(((3R)-1-(oxirane-2-carbonyl)pyrrolidin-3-yl)amino)pyrido[2,3-d]pyrimidin-2(1H)-one]
60.9 | 0.261 | > 250 | 2 | Cc1ccnc(C(C)C)c1-n1c(=O)nc(N2CCCC3C2CN3C(=O)C2CO2)c2cc(Cl)c(-c3ccccc3F)nc21 (stereo not drawn) [Example 33, 6-Chloro-7-(2-fluorophenyl)-1-(2-isopropyl-4-methylpyridin-3-yl)-4-(7-(oxirane-2-carbonyl)-2,7-diazabicyclo[4.2.0]octan-2-yl)pyrido[2,3-d]pyrimidin-2(1H)-one]
> 250 | > 250 | > 250 | 2.9 | Cc1ccnc(C(C)C)c1-n1c(=O)nc(N2CCC[C@H](NC(=O)C3CO3)C2)c2cc(Cl)c(-c3ccccc3F)nc21 (stereo partly drawn) [Example 34, N—((S)-1-(6-Chloro-7-(2-fluorophenyl)-1-(2-isopropyl-4-methylpyridin-3-yl)-2-oxo-1,2-dihydropyrido[2,3-d]pyrimidin-4-yl)piperidin-3-yl)oxirane-2-carboxamide]
167 | 1.36 | > 250 | 3.4 | Cc1ccnc(C(C)C)c1-n1c(=O)nc(N2CC[C@H](NC(=O)C3CO3)C2)c2cc(Cl)c(-c3ccccc3F)nc21 (stereo partly drawn) [Example 35, N—((S)-1-(6-chloro-7-(2-fluorophenyl)-1-(2-isopropyl-4-methylpyridin-3-yl)-2-oxo-1,2-dihydropyrido[2,3-d]pyrimidin-4-yl)pyrrolidin-3-yl)oxirane-2-carboxamide]
0.56 | 0.015 | > 250 | 15.8 | Cc1ccnc(C(C)C)c1-n1c(=O)nc(N2C[C@@H](C)N(C(=O)[C@H]3CO3)C[C@@H]2C)c2cc(Cl)c(-c3c(N)cccc3F)nc21 [Example 37, 7-(2-Amino-6-fluorophenyl)-6-chloro-4-((2S,5R)-2,5-dimethyl-4-((R)-oxirane-2-carbonyl)piperazin-1-yl)-1-(2-isopropyl-4-methylpyridin-3-yl)pyrido[2,3-d]pyrimidin-2(1H)-one]

Compound | IC50 [1, 3] [µM] | IC50 [1, 4] [µM] | IC50 [2] [µM] | GDP-KRAS G12D RF-MS 100 μM 20 h Relative % Bound (GDP-KRAS G12D) [%]
Cc1ccnc(C(C)C)c1-n1c(=O)nc(N2CCN(C(=O)[C@H]3CO3)C[C@@H]2C)c2cc(Cl)c(-c3ccccc3F)nc21 (atropisomer, axis not shown) [Example 16, 6-Chloro-7-(2-fluorophenyl)-1-(2-isopropyl-4-methylpyridin-3-yl)-4-((S)-2-methyl-4-((R)-oxirane-2-carbonyl)piperazin-1-yl)pyrido[2,3-d]pyrimidin-2(1H)-one] | 3.78 | 0.027 | 190 | 3.4
Cc1ccnc(C(C)C)c1-n1c(=O)nc(N(C)C2CN(C(=O)C3CO3)C2)c2cc(Cl)c(-c3ccccc3F)nc21 (stereo not drawn) [Example 29] | 13.8 | 0.227 | > 250 | –
Cc1ccnc(C(C)C)c1-n1c(=O)nc(N(C)C2CN(C(=O)[C@H]3CO3)C2)c2cc(Cl)c(-c3ccccc3F)nc21 [Example 30, (R)-6-chloro-7-(2-fluorophenyl)-1-(2-isopropyl-4-methylpyridin-3-yl)-4-(methyl(1-(oxirane-2-carbonyl)azetidin-3-yl)amino)pyrido[2,3-d]pyrimidin-2(1H)-one] | > 250 | > 31.3 | > 250 | 1.4
Cc1ccnc(C(C)C)c1-n1c(=O)nc(N2C[C@@H](C)N(C(=O)[C@H]3CO3)C[C@@H]2C)c2cc(Cl)c(-c3c(O)cccc3F)nc21 [Example 36, 6-Chloro-4-((2S,5R)-2,5-dimethyl-4-((R)-oxirane-2-carbonyl)piperazin-1-yl)-7-(2-fluoro-6-hydroxyphenyl)-1-(2-isopropyl-4-methylpyridin-3-yl)pyrido[2,3-d]pyrimidin-2(1H)-one] | 0.653 | 0.024 | > 250 | 8.1
